The values below are quoted from earlier work in patent publication US10076117B2, “Pesticide formulation comprising a water soluble active ingredient and a penetration enhancer and use of the same” (ROTAM AGROCHEM INTERNATIONAL COMPANY LIMITED, priority 2014, dated 2018).

The conditions of this series: water.

With `COP(=O)(NC(C)=O)SC` (stereo not shown) [acephate], the solubility was 650 g in 1 L of water.
